From patent publication US8877745B2, “CCR2 receptor antagonists, method for producing the same, and use thereof as medicaments” (Boehringer Ingelheim International GmbH, priority 2010, dated 2014)

These compounds were tested against T1, CCR2 (Homo sapiens, UniProt P41597) (assay: CCR2 receptor membrane binding assay ([125I]MCP-1, THP-1 cell membranes, SPA beads)). Conditions: THP-1 membranes, [125I]MCP-1, bound radioactivity determined after 8 h; read-out: hKi.
T1 construct: Membranes were prepared from THP-1 cells; endogenous in cells; host or cells: THP-1 (human acute monocytic leukaemia cells), membrane preparation
Protocol: The above exemplary substances have been tested for binding to CCR2 using a binding assay as outlined herein below:
THP-1 cells (human acute monocytic leukaemia cells) were cultured under standardized conditions at 37° C. and 5% CO2 in a humidified incubator. THP-1 cells were cultivated in RPMI 1640 medium (Gibco 21875) containing 1% MEM-NEAA (Gibso 11140) 2 mM L-glutamine, 1.5 g/L sodium bicarbonate, 4.5 g/L glucose, 10 mM HEPES and 1.0 mM sodium pyruvate, 90%; 10% fetal calf serum (FCS Gibco 10500-064).
Membranes were prepared from THP-1 cells. THP-1 cells were centrifuged at 300×g at 4° C. for 10 min. The cell pellet was resuspended in Phosphate Buffer Saline (PBS, including 10 μM Pefabloc and a protease inhibitor mix ‘complete’, Boehringer Mannheim (1 tablet/50 ml)), to a concentration of […]. The membrane preparation was performed by disrupting the cells by nitrogen […] (at 50 bar, for 1 h) in a “Nitrogen Bombe” (Parr Instrument). Cell debris was removed by centrifugation (800×g at 4° C., 1 min). The supernatant was centrifuged at 80000×g, 4° C. for 30 min to sediment the cell membranes. Usually 50 mg of protein (Bradford assay) were yielded from 1×10E9 cells. The membranes were resuspended in 25 mM HEPES, 25 mM MgCl2, 1 mM CaCl2, 10% Glycerine for storage in aliquots at −80° C. in 25 mM HEPES, 25 mM MgCl2, 1 mM CaCl2, 10% Glycerine and stored at −80° C.
Receptor Membrane Binding Assay:
Perkin Elmer NEX 332 Jod 125 MCP-1, Stock: 2200 Ci/mmol solved in […] assay buffer, stored at −20° C. THP-1 membrane were adjusted with 25 mM HEPES, pH 7.2; 5 mM MgCl2; 0.5 mM CaCl2; 0.2% BSA assay buffer to a concentration of 2.5 μg/15 μl. Amersham Biosciences PVT-WGA Beads (RPNQ0001) were adjusted with assay buffer to a concentration of 0.24 mg/30 μl. For preparation of the membrane-bead-suspension membranes and beads were incubated for 30 min at RT under rotation (60 rpm) with a ratio of 1:2. Test compounds dissolved in 100% DMSO to a concentration of 10 mM and are further diluted with 100% DMSO to 1 mM. All additional compound dilutions were obtained with assay buffer, final 1% DMSO. Compounds, membrane-bead-suspension and [^125I]MCP-1 (ca. 25000 cpm/10 μl) were incubated. Bound radioactivity was determined by scintillation counter after 8 h. Determination of affinity of test compounds (dissociation constant hKi) is calculated by iterative fitting of experimental data using the “easy sys” program, which is based on law of mass action (Schittkowski K. (1994), Numerische Mathematik, Vol. 68, 129-142).

T1 sequence (P41597 whole entry): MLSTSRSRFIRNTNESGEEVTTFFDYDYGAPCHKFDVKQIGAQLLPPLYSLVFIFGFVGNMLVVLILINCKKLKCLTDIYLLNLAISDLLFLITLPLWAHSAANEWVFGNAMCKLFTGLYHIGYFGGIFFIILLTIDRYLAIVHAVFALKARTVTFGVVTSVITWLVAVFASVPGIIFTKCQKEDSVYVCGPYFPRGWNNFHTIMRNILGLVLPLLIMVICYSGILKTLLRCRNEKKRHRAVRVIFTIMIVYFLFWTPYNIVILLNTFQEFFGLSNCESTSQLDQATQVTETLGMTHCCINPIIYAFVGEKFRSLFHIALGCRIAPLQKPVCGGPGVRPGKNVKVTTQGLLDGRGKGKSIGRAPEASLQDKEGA

| SMILES | Ki [µM] |
| --- | --- |
| COC1COCCC1NC1CCN(C(=O)c2ncnc(N3CCC(c4ccccc4F)C3)c2C)CC1 (stereo not drawn) [Example 51] | 0.405 |
| Cc1c(C(=O)N2CCC(N3CCC(c4cccc(C(=O)O)c4)CC3)CC2)ncnc1N1CCc2ccc(C(F)(F)F)cc2C1 [Example 83] | 0.698 |
| COC1COCCC1NC1CCN(C(=O)c2ncnc(N3CCN(c4ccc(Cl)cc4Cl)CC3)c2C)CC1 (stereo not drawn) [Example 62ag] | 0.04 |
| CO[C@@H]1COCC[C@@H]1NC1CCN(C(=O)c2ncnc(N3CCc4ccc(C(F)(F)F)cc4C3)c2C)CC1 [Example 63] | 0.004 |
| COc1nc(C(=O)N2CCC(NC3CCOCC3)CC2)c(C)c(N2CCc3ccc(C(F)(F)F)cc3C2)n1 [Example 69w] | 0.005 |
| Cc1c(C(=O)N2CCC(N3CCC(N(C)S(C)(=O)=O)CC3)CC2)ncnc1N1CCC(c2cccc(Cl)c2)CC1 [Example 27] | 0.661 |
| Cc1c(C(=O)N2CCC(N[C@@H]3CCOC[C@@H]3F)CC2)ncnc1N1CCc2ccc(C(F)(F)F)cc2C1 [Example 69m] | 0.016 |
| Cc1c(C(=O)N2CCC(N[C@@H]3CCOC[C@@H]3F)CC2)ncnc1N1CCc2ccc(Br)cc2C1 [Example 69ab] | 0.037 |
| COC1COCCC1NC1CCN(C(=O)c2ncnc(N3CCC4(CC3)OCc3ccccc34)c2C)CC1 (stereo not drawn) [Example 19] | 3.62 |
| COC1COCCC1NC1CCN(C(=O)c2ncnc(N3CCCC(c4cccc(Cl)c4)C3)c2C)CC1 (stereo not drawn) [Example 31] | 1.71 |
| Cc1c(C(=O)N2CCCN(CCO)CC2)ncnc1N1CCc2ccc(C(F)(F)F)cc2C1 [Example 76] | 3.4 |
| Cc1c(C(=O)N2CCC(NC3CCOCC3)CC2)ncnc1N1CCc2ccc(C(F)(F)F)cc2C1 [Example 69r] | 0.007 |
| COc1nc(C(=O)N2CCC(N[C@@H]3CCOC[C@@H]3OC)CC2)c(C)c(N2CCc3ccc(C(F)(F)F)cc3C2)n1 [Example 69i] | 0.004 |
| COC1COCCC1NC1CCN(C(=O)c2ncnc(N3CCN(c4c(Cl)cncc4Cl)CC3)c2C)CC1 (stereo not drawn) [Example 62aj] | 0.035 |
| COc1cc(N2CCN(c3ncnc(C(=O)N4CCC(NC5CCOCC5OC)CC4)c3C)CC2)cc(C(F)(F)F)c1 (stereo not drawn) [Example 62ae] | 0.049 |
| COC1COCCC1NC1CCN(C(=O)c2ncnc(N3CCC4(CCc5ccccc54)CC3)c2C)CC1 (stereo not drawn) [Example 62] | 0.59 |
| COC1COCCC1NC1CCN(C(=O)c2ncnc(N3CCN(c4ccc(Cl)c(Cl)c4)CC3)c2C)CC1 (stereo not drawn) [Example 62al] | 0.128 |

| SMILES | Ki [µM] |
| --- | --- |
| COC1COCCC1NC1CCN(C(=O)c2ncnc(N3CCCC(c4ccccc4)CC3)c2C)CC1 (stereo not drawn) [Example 62n] | 0.192 |
| COC1COCCC1NC1CCN(C(=O)c2ncnc(N3CCC(c4cccc(C)c4)CC3)c2C)CC1 (stereo not drawn) [Example 15] | 0.732 |
| CO[C@@H]1COCC[C@@H]1NC1CCN(C(=O)c2ncnc(N3CCC4(CCc5cc(Br)ccc5O4)CC3)c2C)CC1 [Example 62am] | 0.012 |
| COc1c(C(=O)N2CCC(N[C@@H]3CCOC[C@@H]3OC)CC2)ncnc1N1CCc2ccc(OC(F)(F)F)cc2C1 [Example 69c] | 0.028 |
| Cc1c(C(=O)N2CCC(N3CCC(N(C)S(C)(=O)=O)CC3)CC2)ncnc1N1CCC(c2cccc(C(F)(F)F)c2)C1 (stereo not drawn) [Example 46] | 1.17 |
| COC1COCCC1NC1CCN(C(=O)c2ncnc(N3CCc4cccc(C(F)(F)F)c4C3)c2C)CC1 (stereo not drawn) [Example 2] | 0.507 |
| COC1COCCC1NC1CCN(C(=O)c2ncnc(N3CCc4ncc(C(F)(F)F)cc4C3)c2C)CC1 (stereo not drawn) [Example 61] | 0.309 |
| COC1COCCC1NC1CCN(C(=O)c2ncnc(N3CCc4ccc(C(C)C)cc4C3)c2C)CC1 (stereo not drawn) [Example 62k] | 0.012 |
| COc1c(C(=O)N2CCC(N[C@H]3CCOC[C@H]3OC)CC2)ncnc1N1CCc2ccc(OC(F)(F)F)cc2C1 [Example 69d] | 0.011 |
| Cc1c(C(=O)N2CCC(N3CCOCC3)CC2)ncnc1N1CCc2ccc(C(F)(F)F)cc2C1 [Example 82] | 0.203 |
| CO[C@@H]1COCC[C@@H]1NC1CCN(C(=O)c2ncnc(N3CCc4ccc(OC(F)(F)F)cc4C3)c2C)CC1 [Example 65] | 0.016 |
| COC1COCCC1NC1CCN(C(=O)c2ncnc(N3CCc4ccc(OC(F)(F)F)cc4C3)c2C)CC1 (stereo not drawn) [Example 8] | 0.011 |
| COc1c(C(=O)N2CCC(N[C@@H]3CCOC[C@@H]3OC)CC2)ncnc1N1CCc2ccc(C(F)(F)F)cc2C1 [Example 67] | 0.021 |
| Cc1c(C(=O)N2CCC(N3CCCC(O)C3)CC2)ncnc1N1CCc2ccc(C(F)(F)F)cc2C1 (stereo not drawn) [Example 77] | 0.41 |
| COC1COCCC1NC1CCN(C(=O)c2ncnc(N3CCN(c4ccc(Cl)cc4C)CC3)c2C)CC1 (stereo not drawn) [Example 62y] | 0.012 |
| Cc1c(C(=O)N2CCN(C(C)C)CC2)ncnc1N1CCc2ccc(C(F)(F)F)cc2C1 [Example 71] | 2.1 |
